Laboratory results as given in ChEMBL document CHEMBL4706574, “Preparation, characterization, antioxidant evaluation of new curcumin derivatives and effects of forming HSA-bound nanoparticles on the stability and activity” (Eur J Med Chem, 2020).
Activity calls are given as the source filed them. No cut-off for these calls is given here.

Experiments:
PC-12 [1] = assay: Cytoprotective activity against H2O2-induced cell death in […] assessed as cell viability at 10 uM incubated for 0.5 hrs followed by H2O2 stimulation and measured after 2 hrs by MTT assay; type: functional, cell-based; conditions: time 2.5 hrs
PC-12 [2] = assay: Cytoprotective activity against H2O2-induced cell death in […] assessed as cell viability at 30 to 100 uM incubated for 0.5 hrs followed by H2O2 stimulation and measured after 2 hrs by MTT assay; type: functional, cell-based; conditions: dose 30-100 µM, time 2.5 hrs
[3] = Cytoprotective activity against H2O2-induced cell death in […] assessed as cell viability at 30 uM incubated for 0.5 hrs followed by H2O2 stimulation and measured after 2 hrs by MTT assay relative to control; type: functional; conditions: Rattus norvegicus, time 2.5 hrs, read-out: Activity
PC-12 [4] = assay: Cytoprotective activity against H2O2-induced cell death in […] assessed as cell viability at 0.1 uM incubated for 0.5 hrs followed by H2O2 stimulation and measured after 2 hrs by MTT assay; type: functional, cell-based; conditions: time 2.5 hrs
PC-12 [5] = assay: Cytoprotective activity against H2O2-induced cell death in […] assessed as cell viability at 100 uM incubated for 0.5 hrs followed by H2O2 stimulation and measured after 2 hrs by MTT assay; type: functional, cell-based; conditions: Rattus norvegicus, time 2.5 hrs
HCT-116 = assay: Antiproliferative activity against human HCT-116 cells assessed as cell viability at 10 uM incubated for 48 hrs by MTT assay (reference value: 100 %); type: functional; conditions: read-out: Activity
K562 = assay: Antiproliferative activity against human K562 cells assessed as cell viability at 10 uM incubated for 48 hrs by MTT assay (reference value: 100 %); type: functional; conditions: read-out: Activity
[6] = Stability of compound in PBS buffer at pH 7.4 incubated for 48 hrs by UV-vis spectrophotometry; type: physicochemical; conditions: pH 7.4, 48 h
HepG2 = assay: Antiproliferative activity against human HepG2 cells assessed as cell viability at 10 uM incubated for 48 hrs by MTT assay (reference value: 100 %); type: functional; conditions: read-out: Activity

Row | Compound | Activity (PC-12 [2]; Rattus norvegicus) | viability at 30 µM [3] [%] | Activity (PC-12 [5]) | other results
1 | Oc1ccc(/C=C/c2cc(O)cc(O)c2)cc1 | Active |  |  | Activity (PC-12 [1]): inactive
2 | C=CCc1cc(/C=C/C(=O)/C=C(O)/C=C/c2cc(CC=C)c(O)c(OC)c2)cc(OC)c1O | Active | 100 |  | Activity (PC-12 [4]): Active
3 | O=C(O)c1cc(O)c(O)c(O)c1 |  |  |  | Activity (PC-12 [1]): inactive; Activity (PC-12 [2]): Active
4 | C=CCc1cc(/C=C/C(=O)/C=C(O)/C=C/c2ccc(O)c(OC)c2)cc(OC)c1O | Active | 100 | inactive | 
5 | COc1cc(/C=C/C(O)=C/C(=O)/C=C/c2cc(CC=C(C)C)c(O)c(OC)c2)ccc1O | Active | 100 | inactive | 
6 | C=CCc1cc(/C=C/c2cc(/C=C/c3ccc(O)c(OC)c3)[nH]n2)cc(OC)c1O | Active |  |  | 
7 | COc1cc(/C=C/C(=O)CC(=O)/C=C/c2ccc(O)c(OC)c2)ccc1O [CURCUMIN] | Active |  |  | viability at 10 µM (HCT-116): 10.3%; viability at 10 µM (K562): 65.4%; Stabilty [6]: Unstable; viability at 10 µM (HepG2): 58.8%
8 | C=CCc1cc(/C=C/c2cc(/C=C/c3cc(CC=C(C)C)c(O)c(OC)c3)n[nH]2)cc(OC)c1O | Active |  |  | 
9 | C=CCc1cc(/C=C/C(O)=C/C(=O)/C=C/c2cc(CC=C(C)C)c(O)c(OC)c2)cc(OC)c1O | Active | 100 |  | Activity (PC-12 [4]): Active
10 | COc1cc(/C=C/c2cc(/C=C/c3cc(CC=C(C)C)c(O)c(OC)c3)[nH]n2)cc(CC=C(C)C)c1O | Active | 100 | inactive | 
11 | COc1cc(/C=C/C(=O)/C=C(O)/C=C/c2cc(CC=C(C)C)c(O)c(OC)c2)cc(CC=C(C)C)c1O | Active | 100 | Active | viability at 10 µM (HCT-116): 61.1%; viability at 10 µM (K562): 64.3%; Activity (PC-12 [4]): Active; Stabilty [6]: Unstable; viability at 10 µM (HepG2): 64.3%
12 | COc1cc(/C=C/c2cc(/C=C/c3cc(CC=C(C)C)c(O)c(OC)c3)n[nH]2)ccc1O | Active |  |  | 
13 | C=CCc1cc(/C=C/c2cc(/C=C/c3cc(CC=C)c(O)c(OC)c3)[nH]n2)cc(OC)c1O | Active |  |  | 
